# In patent publication US5321030A, “Creatine analogs having antiviral activity” (priority 1991, dated 1994):
# Values joined by “and” are separate entries in the source; they are usually repeats but may differ in a detail not shown here. Equal entries are not always repeated. Where two headings read alike, the source gives them in different places.
# What was measured:
# in vitro = conditions: monkey, vero cells
# [1] = tested on: Herpes Simplex Virus, Type 1, strain BW10168 (TK-); test: microbe, parasite or virus in culture; type: cell-based; design: TI50 (CD50 ÷ ED50): unit not given beside the values; conditions: for Average CPE: virus controls 4.0; for EC50: Human alphaherpesvirus 1, Vero
# [2] = tested on: Varicella-Zoster Virus, strain Oka; test: microbe, parasite or virus in culture; type: cell-based; design: TI50 (CD50 ÷ ED50): unit not given beside the values
# HCMV, strain AD-169 = test: Plaque reduction assay, HCMV strain AD-169; type: cell-based, Human Cytomegalovirus; design: TI50 (CD50 ÷ ED50): unit not given here; conditions: Hs-68 cells; for TI50 (CD50 ÷ ED50): Table 5; for # Plaques: virus control 74.2 ± 8.6
# [3] = Human alphaherpesvirus 3, CV-1, read-out: % Reduction
# [4] = Human alphaherpesvirus 3, MRC5, read-out: % Reduction
smiles,measurement,setting,value
"NC1=NCCN1CC(=O)O [cyclocreatine, 1-carboxymethyl-2-iminoimidazolidine]",CC50,in vitro,> 4000 µg/mL
same,Average CPE,[1]; AM-285 62.5 μg/ml,3.2
same,Average CPE,[1]; AM-285 125 μg/ml,3.5
same,Average CPE,[1]; AM-285 260 μg/ml,3.2
same,Average CPE,[1]; AM-285 500 μg/ml,1.7
same,Average CPE,[1]; AM-285 1000 μg/ml,1.8
same,Average CPE,[1]; AM-285 2000 μg/ml,2.0
same,Average CPE,[1]; AM-285 4000 μg/ml,0.7
same,EC50,"[1]; read-out: ED50, Vero cells, Table 8",384 µg/mL
same,EC50,"[1]; read-out: ED50, as stated in text",~900 µg/mL and ~6.3 mM
same,TI50 (CD50 ÷ ED50),"[1]; Vero cells, Table 8",> 4.5
same,TI50 (CD50 ÷ ED50),"[2]; CV-1 cells, Table 9B",~ 54
same,# Plaques,"[2]; CV-1 cells, AM-285 156 μg/ml, virus control 70.25 ± 6.9",28.5
same,# Plaques,"[2]; CV-1 cells, AM-285 312.5 μg/ml, virus control 70.25 ± 6.9",12
same,# Plaques,"[2]; CV-1 cells, AM-285 625 μg/ml, virus control 70.25 ± 6.9",3
same,# Plaques,"[2]; CV-1 cells, AM-285 1250 μg/ml, virus control 70.25 ± 6.9",1
same,# Plaques,"[2]; CV-1 cells, AM-285 2500 μg/ml, virus control 70.25 ± 6.9",0
same,# Plaques,"[2]; CV-1 cells, AM-285 5000 μg/ml, virus control 70.25 ± 6.9",0
same,# Plaques,"[2]; CV-1 cells, AM-285 10000 μg/ml, virus control 70.25 ± 6.9",0
same,inhibition at 156 µg/mL,[2]; [3],59%
same,inhibition at 312.5 µg/mL,[2]; [3],83%
same,inhibition at 625 µg/mL,[2]; [3],96%
same,inhibition at 1250 µg/mL,[2]; [3],98%
same,inhibition at 2500 µg/mL,[2]; [3],100%
same,inhibition at 5000 µg/mL,[2]; [3],100%
same,inhibition at 10000 µg/mL,[2]; [3],100%
same,EC50,"[2]; Human alphaherpesvirus 3, CV-1, read-out: ED50",< 156 µg/mL
same,EC50,"[2]; Human alphaherpesvirus 3, CV-1, read-out: ED50, approximate value in parentheses",~107 µg/mL
same,inhibition at 62.5 µg/mL,[2]; [4],0%
same,inhibition at 125 µg/mL,[2]; [4],0%
same,inhibition at 260 µg/mL,[2]; [4],36%
same,inhibition at 500 µg/mL,[2]; [4],42%
same,inhibition at 1000 µg/mL,[2]; [4],71%
same,inhibition at 2000 µg/mL,[2]; [4],91%
same,inhibition at 4000 µg/mL,[2]; [4],100%
same,EC50,"[2]; Human alphaherpesvirus 3, MRC5, read-out: ED50",564 µg/mL
same,TI50 (CD50 ÷ ED50),"[2]; MRC-5 cells, Table 9A",> 7.1
same,# Plaques,"[2]; MRC-5 cells, AM-285 62.5 μg/ml, virus control 32.7 ± 9.3",26
same,# Plaques,"[2]; MRC-5 cells, AM-285 125 μg/ml, virus control 32.7 ± 9.3",26
same,# Plaques,"[2]; MRC-5 cells, AM-285 260 μg/ml, virus control 32.7 ± 9.3",21
same,# Plaques,"[2]; MRC-5 cells, AM-285 500 μg/ml, virus control 32.7 ± 9.3",19
same,# Plaques,"[2]; MRC-5 cells, AM-285 1000 μg/ml, virus control 32.7 ± 9.3",9.5
same,# Plaques,"[2]; MRC-5 cells, AM-285 2000 μg/ml, virus control 32.7 ± 9.3",3
same,# Plaques,"[2]; MRC-5 cells, AM-285 4000 μg/ml, virus control 32.7 ± 9.3",0
same,TI50 (CD50 ÷ ED50),"HCMV, strain AD-169",greater than 6.2
same,TI50 (CD50 ÷ ED50),"HCMV, strain AD-169; listed as AM-285",> 6.2
same,# Plaques,"HCMV, strain AD-169; AM-285 62.5 μg/ml",71
same,# Plaques,"HCMV, strain AD-169; AM-285 125 μg/ml",65
same,# Plaques,"HCMV, strain AD-169; AM-285 260 μg/ml",87
same,# Plaques,"HCMV, strain AD-169; AM-285 500 μg/ml",41
